Source: the supplement of paper PMC10307832

Key:
Experiment in all cases: relative viability (nuclei count vs DMSO), 5 days (fraction); higher = more cells survive
AZD1208 + Pictilisib = compound: N[C@@H]1CCCN(c2c(/C=C3\SC(=O)NC3=O)cccc2-c2ccccc2)C1 [AZD1208] + CS(=O)(=O)N1CCN(Cc2cc3nc(-c4cccc5[nH]ncc45)nc(N4CCOCC4)c3s2)CC1 [Pictilisib] (partner 1 µM)
How it was run: (§1)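 Lung cancer cell lines in 1536-well plates were dosed by pin tool the day after seeding, either with one drug alone or with a fixed anchor-drug dose plus five library-drug doses (not always all listed) in √10 steps. After 5 days, cells were fixed and their nuclei stained in one step (final 0.05% Triton X-100, 1% formaldehyde, 1 ug/ml Hoechst), then counted on 4× images. Relative viability is the nuclei count in treated wells divided by that in vehicle wells. Values are medians of duplicate plates.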

AZD1208 + Foretinib = compound: N[C@@H]1CCCN(c2c(/C=C3\SC(=O)NC3=O)cccc2-c2ccccc2)C1 [AZD1208] + COc1cc2c(Oc3ccc(NC(=O)C4(C(=O)Nc5ccc(F)cc5)CC4)cc3F)ccnc2cc1OCCCN1CCOCC1 [Foretinib] (partner 0.25 µM)
How it was run: as §1

AZD1208 + Linsitinib = compound: N[C@@H]1CCCN(c2c(/C=C3\SC(=O)NC3=O)cccc2-c2ccccc2)C1 [AZD1208] + C[C@]1(O)C[C@@H](c2nc(-c3ccc4ccc(-c5ccccc5)nc4c3)c3c(N)nccn32)C1 [Linsitinib] (partner 1 µM)
How it was run: as §1

AZD1208 + Luminespib = compound: N[C@@H]1CCCN(c2c(/C=C3\SC(=O)NC3=O)cccc2-c2ccccc2)C1 [AZD1208] + CCNC(=O)c1noc(-c2cc(C(C)C)c(O)cc2O)c1-c1ccc(CN2CCOCC2)cc1 [Luminespib] (partner 0.01 µM)
How it was run: as §1

**Q.** How did the relative viability (AZD1208 + Pictilisib; first compound 0.08 µM) turn out when UMC-11 was run?
**A.** The relative viability was 0.507.

**Q.** What about the relative viability (AZD1208 + Pictilisib; first compound 0.253 µM) of the same cell line?
**A.** Its relative viability is 0.612.

**Q.** What about the relative viability (AZD1208 + Pictilisib; first compound 0.8 µM) of the same cell line?
**A.** The relative viability was 0.51.

**Q.** What about the relative viability (AZD1208 + Pictilisib; first compound 2.53 µM) of the same cell line?
**A.** Its relative viability is 0.389.

**Q.** And the relative viability (AZD1208 + Pictilisib; first compound 8 µM)?
**A.** Its relative viability is 0.344.

**Q.** What about the relative viability (AZD1208 + Foretinib; first compound 0.08 µM) of the same cell line?
**A.** Its relative viability is 0.884.

**Q.** What about the relative viability (AZD1208 + Foretinib; first compound 0.253 µM) of the same cell line?
**A.** The relative viability was 0.877.

**Q.** And the relative viability (AZD1208 + Foretinib; first compound 0.8 µM)?
**A.** Its relative viability is 0.77.

**Q.** And the relative viability (AZD1208 + Foretinib; first compound 2.53 µM)?
**A.** The relative viability was 0.741.

**Q.** What about the relative viability (AZD1208 + Foretinib; first compound 8 µM) of the same cell line?
**A.** The relative viability was 0.458.

**Q.** And the relative viability (AZD1208 + Linsitinib; first compound 0.08 µM)?
**A.** The relative viability was 0.909.

**Q.** What about the relative viability (AZD1208 + Linsitinib; first compound 0.253 µM) of the same cell line?
**A.** Its relative viability is 0.767.

**Q.** And the relative viability (AZD1208 + Linsitinib; first compound 0.8 µM)?
**A.** Its relative viability is 0.772.

**Q.** And the relative viability (AZD1208 + Linsitinib; first compound 2.53 µM)?
**A.** The relative viability was 0.67.

**Q.** And the relative viability (AZD1208 + Linsitinib; first compound 8 µM)?
**A.** Its relative viability is 0.558.

**Q.** What about the relative viability (AZD1208 + Luminespib; first compound 0.08 µM) of the same cell line?
**A.** Its relative viability is 0.816.

**Q.** And the relative viability (AZD1208 + Luminespib; first compound 0.253 µM)?
**A.** The relative viability was 0.894.

**Q.** And the relative viability (AZD1208 + Luminespib; first compound 0.8 µM)?
**A.** The relative viability was 0.62.

**Q.** And the relative viability (AZD1208 + Luminespib; first compound 2.53 µM)?
**A.** Its relative viability is 0.664.

**Q.** What about the relative viability (AZD1208 + Luminespib; first compound 8 µM) of the same cell line?
**A.** The relative viability was 0.406.
